Patent US4618681A, “Aryl substituted 1H-4,5-dihydro-1,2,3-triazoles as anticonvulsants” (priority 1984, dated 1986)
Entries after “also recorded” stand apart in the source; their conditions may differ. Where two headings read alike, the source gives them in different places.

Key:
[1] = Maximal electroshock seizure (MES) pattern test in rats; type: in vivo, rats (male albino, Sprague Dawley)
Protocol: (§1) All animals were allowed free access to both food (S/L Custom Lab Diet-7) and water, except when they were removed from their cages for the experimental procedure.
(§2) The drugs were administered either orally or intraperitoneally in a volume of 0.01 ml/g body weight in mice and 0.04 ml/10 g in rats. All tests were conducted at the previously determined time of peak drug effect.
(§3) The profile of anticonvulsant activity for each substance was established by five tests: one electrical and four chemical. The electrical test employed was the maximal electroshock seizure pattern test. […] Except for the sc Strych Test, these tests measure the ability of anticonvulsants to afford complete protection against threshold seizures induced by the subcutaneous injection of the CD97 of the convulsant agent.

[2] = Subcutaneous Metrazol Seizure Threshold Test (sc Met) in rats; type: in vivo, rats (male albino, Sprague Dawley)
Protocol: as §2, §3
(§4) All convulsants were administered subcutaneously into a loose fold of skin on the back of the neck in a volume of 0.01 ml/g body weight in mice; Metrazol was injected in a volume of 0.02 ml/10 g body weight in rats. The convulsant drugs were administered at the previously determined time of peak anticonvulsant action of the drug under study. […] Except for strychnine, absence of a five-second episode of clonic spasms (threshold seizure) was taken as protection. In the case of strychnine, complete abolition of the hindleg tonic extension was taken as protection.

[3] = type: in vivo; details: Phase V, mice, i.p.
Protocol: as §3, §4

in vivo [4] = experiment: in vivo; parameters: species or system mice; details: mouse, in vivo, ip
Protocol: (§5) The profile of toxicity for each test drug was established by the following procedures: firstly, the minimal neurotoxic dose (TD50) was determined by the rotorod procedure at the time of peak neurotoxic effect. When a normal mouse is placed on a knurled rod one inch in diameter rotating at a speed of six rpm it can maintain its equilibrium for long periods of time. Neurological deficit is indicated by inability of the mouse to maintain its equilibrium for one minute in each of three trials on this rotating rod. Neurological deficit in rats is indicated by ataxia, loss of placing response and muscle tone. […] These observations also provide preliminary information essential for the subsequent determination of the HD50 and LD50. The HD50 represents the median dose at which 50% of animals lose their righting reflex.

in vivo [5] = details: mouse, in vivo; for selectivity ratio: mice, i.p.
Protocol: as §5

[6] = Phase III Toxicity Profile in mice i.p. (overt signs of toxicity); type: in vivo
From the text: […]. […] […]. […] […].

[7] = parameters: species or system mice; details: mouse, in vivo, ip, 1132 mg/kg
Protocol: Consequently, it was necessary to administer the high doses required for the righting reflex and 24-hour lethality tests in mice in double the volume. In view of this fact, additional studies were done to determine the effect of this double volume on the time of peak effect of the test substance. […] […]. Moreover, 1, 3, and 4 of the 8 mice were dead at 20, 40, and 46 hours, respectively. […] Accordingly, additional pharmacokinetic and pharmacodynamic studies will be done in order to reveal mechanisms that may contribute to the long TPE for neurotoxicity and the abnormally low ratio between the minimal-toxic dose and the 24-hour lethal dose.

[8] = Oral absorption in mice (oral/i.p. ratios); type: in vivo
From the text: The extent of oral absorption can be determined from the ratio of the oral ED50/i.p. […] In mice the oral TD50/i.p. TD50 and oral ED50/i.p.

[9] = mouse, in vivo
Protocol: as §1, §2, §3, §4

[10] = not given; remark: listed apart in the source
[11] = not given; remark: listed apart in the source
[12] = mouse, in vivo; remark: listed apart in the source
Protocol: as §2, §5

[13] = not given; remark: listed apart in the source
in vivo [14] = details: mouse
Protocol: as §2, §5

in vivo [15] = details: rat, po
Protocol: as §2, §5

[16] = Time of peak effect (TPE) over several tests in mice
Protocol: as §2

[17] = Time of peak effect (TPE) over several tests in rats; details: p.o., Compound 9: toxicity, MES and sc Met tests
Protocol: as §2

[18] = Phase I anticonvulsant screening (MES and scMet tests); details: in words
[19] = Subcutaneous Metrazol Seizure Threshold Test (sc Met) in mice; details: for ED50: Mus musculus
Protocol: as §1, §2, §3, §4

[20] = 300 mg/kg, four hours after administration
[21] = mice, i.p., from safety ratio TD3/ED97

## Clc1ccc(N2N=NCC2c2ccncc2)cc1 (stereo not drawn) [Compound 9, 1-(p-Chlorophenyl)-5-(4-pyridyl)-Δ^2-1,2,3-triazoline]
[1]; Rattus norvegicus, po, rats
  ED50: 266 mg/kg
[1]; oral administration
  anticonvulsant potency by MES, rats compared with mice: no significant difference in the anticonvulsant potency
[1]; rats, p.o.
  97% protection in nontoxic doses, MES: do not provide 97% protection
[2]; Rattus norvegicus, po, rats, p.o., read-out: ED50 sc Met
  ED50: 278 mg/kg
[2]; oral administration
  anticonvulsant potency by sc Met, rats compared with mice: no significant difference in the anticonvulsant potency
[2]; rats, p.o.
  97% protection in nontoxic doses, sc Met: do not provide 97% protection
[3]
  effectiveness by the sc Strych test: not effective against sc Strych; also recorded: ineffective after i.p. administration in mice by the sc Strych test
In vivo [4]
  Slope, regression line, HD50 (righting reflex): 4.27
  TD50: 2050 mg/kg
  Time of Test / time of peak toxicity, righting reflex: 24 h
In vivo [5]
  selectivity (slope of regression line), 24-hour lethality: lack of selectivity (flat regression lines)
In vivo [5]; ip
  margin between the minimal toxic dose and the 24-hour lethal dose: probably not satisfactory
In vivo [5]; ip, 24-hour LD50, rotorod TD50, read-out: Ratio LD50/TD50
  selectivity ratio: 1.88
In vivo [5]; ip, 24-hour LD50, read-out: Ratio LD50/HD50
  selectivity ratio: 1.04
In vivo [5]; ip, read-out: LD50 (lethality)
  LD50 at 24 h: 2130 mg/kg
[6]; mice, i.p., 1TD50, 2TD50's and 4TD50's
  toxicity profile: decreased motor activity, ataxia, decreased respiration and cyanosis
[6]; mice, i.p., 2TD50's
  toxicity at the end of 24 hours: One of two animals given 2TD50's was still ataxic and cyanotic at the end of 24 hours
[6]; mice, i.p., 4TD50's
  dead 24 hours after drug administration: Both mice given 4TD50's of Compound 9 were dead 24 hours after drug administration
[6]; mouse, in vivo, ip
  rotorod toxicity: one of two animals given 4TD50's displayed rotorod toxicity
[7]
  gross examination of the peritoneal cavity: an unevacuated stomach that was approximately three times normal size; an empty, flaccid small intestine; and a vermiform appendix markedly enlarged from flatus
[8]
  absorption after oral administration: adequately absorbed in mice after oral administration
[20]
  activity by the MES test: ineffective by the MES test (although the tonic extension was slow)
mice, i.p.
  ED50 MES: 257.42 mg/kg
  Protective Index (P.I.) = TD50/ED50, MES: 4.40
  Time of Test / time of peak effect (TPE), MES: 1/2
[21]
  mice protected, MES, nontoxic doses: 97%
mice, p.o.
  ED50 MES: 290.72 mg/kg
  potency relative to phenobarbital, MES: 1/15
  potency relative to phenytoin, MES: 1/32
mice, p.o., MES
  97% protection in nontoxic doses, oral: the same level of protection is obtained only in mice subjected to the MES test
mouse, in vivo
  oral ED50/i.p. ED50, MES: 1.13
  safety ratio TD3/ED97, MES: 1.13
mouse, in vivo, po
  P.I. by the MES test: 2.42
Nontoxic doses
  profile of anticonvulsant activity, electroshock: ability to modify maximal electroshock seizure pattern
[9]
  oral ED50/i.p. ED50, sc Met: 3.50
[9]; po
  P.I. by the scMet test: 4.62
[9]; sc
  P.I. derived from the sc Met test: high
[10]; Phase V, mice, i.p.
  P.I. against sc Bic, times higher than that for phenobarbital: fifty
  effectiveness by the sc Bic test: effective against sc Met, sc Bic, and sc Pic in nontoxic doses
[10]; in words
  P.I. derived from the sc Bic test: high
[11]; Phase V, mice, i.p.
  P.I. by the sc Pic test compared with phenobarbital, ethosuximide and valproate: compares favorably with those for phenobarbital, ethosuximide, and valproate
  effectiveness by the sc Pic test: lesser effectiveness by the sc Pic test
[11]; in words
  selectivity (slope of regression line), sc Pic test: lack of selectivity (flat regression lines)
[12]; ip
  TPE (rotorod): 12 and 20
[12]; po
  TPE by the rotorod test: 24 h
[12]; po, 600 mg/kg
  deaths: 1 of 8
[12]; po, 700 mg/kg
  deaths (of 8): 6
[12]; po, 800 mg/kg
  deaths: 1 of 8
[12]; po, 1000 mg/kg
  deaths: 4 of 8
[13]; rat, in vivo, po
  neurotoxicity, rats compared with mice: significantly more neurotoxic in rats than it is in mice
[13]; rats, p.o.
  toxicity relative to phenobarbital: one-fifth to one-sixth
In vivo [14]
  selectivity ratio: 0.62
In vivo [14]; ip
  TD50: 1130 mg/kg
In vivo [14]; po
  TD50: 705 mg/kg
In vivo [15]
  TD50: 394 mg/kg
[16]; p.o.
  TPE by the anticonvulsant tests: one-half
[16]; p.o. vs i.p.
  TPE after oral compared with intraperitoneal administration: significantly different from that obtained after intraperitoneal administration
[17]
  TPE: six
[18]
  anticonvulsant potency: most potent
[19]; [20]
  anti-Metrazol activity: anti-Metrazol activity was present
[19]; ip, read-out: ED50 sc Met
  ED50: 43.5 mg/kg
[19]; po, read-out: ED50 scMet
  ED50: 153 mg/kg
[19]; Phase V, mice, i.p.
  effectiveness by the sc Met test: effective against sc Met, sc Bic, and sc Pic in nontoxic doses
[19]; mice
  safety ratio TD3/ED97, sc Met: 3.44
[19]; mice, i.p.
  Protective Index (P.I.) = TD50/ED50, sc Met: 26.02
  Time of Test / time of peak effect (TPE), sc Met: 1/2
[19]; [21]
  mice protected, sc Met, nontoxic doses: 97%
[19]; mice, in words
  24-hour LD50/ED50 safety ratio by the sc Met test: high
[19]; nontoxic doses
  profile of anticonvulsant activity, Metrazol: elevate the Metrazol seizure threshold in nontoxic doses
